Results taken from ChEMBL document CHEMBL5291721, “A preclinical secondary pharmacology resource illuminates target-adverse drug reaction associations of marketed drugs” (Nat Commun, 2023).

Experiments:
[1] = molecular target: T1, Muscarinic acetylcholine receptor M1 (Homo sapiens, UniProt P11229); format: functional, cell-based
T1 sequence (P11229 whole entry): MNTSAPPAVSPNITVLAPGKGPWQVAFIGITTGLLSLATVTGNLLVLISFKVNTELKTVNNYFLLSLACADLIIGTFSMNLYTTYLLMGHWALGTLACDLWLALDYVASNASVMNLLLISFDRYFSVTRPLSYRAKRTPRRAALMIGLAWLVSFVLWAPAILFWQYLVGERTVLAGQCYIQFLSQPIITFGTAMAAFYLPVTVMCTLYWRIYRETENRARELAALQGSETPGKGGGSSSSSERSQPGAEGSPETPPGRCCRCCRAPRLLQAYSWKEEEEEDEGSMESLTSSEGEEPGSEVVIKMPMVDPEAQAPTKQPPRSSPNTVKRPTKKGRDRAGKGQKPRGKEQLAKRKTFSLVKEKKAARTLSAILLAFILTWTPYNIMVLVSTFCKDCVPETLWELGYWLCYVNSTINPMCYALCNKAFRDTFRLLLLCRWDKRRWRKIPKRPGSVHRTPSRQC

Prothrombin = Prothrombin (Homo sapiens, UniProt P00734); format: functional
Thromboxane A2 receptor = molecular target: T2, Thromboxane A2 receptor (Homo sapiens, UniProt P21731); format: functional, cell-based
T2 sequence (P21731 whole entry): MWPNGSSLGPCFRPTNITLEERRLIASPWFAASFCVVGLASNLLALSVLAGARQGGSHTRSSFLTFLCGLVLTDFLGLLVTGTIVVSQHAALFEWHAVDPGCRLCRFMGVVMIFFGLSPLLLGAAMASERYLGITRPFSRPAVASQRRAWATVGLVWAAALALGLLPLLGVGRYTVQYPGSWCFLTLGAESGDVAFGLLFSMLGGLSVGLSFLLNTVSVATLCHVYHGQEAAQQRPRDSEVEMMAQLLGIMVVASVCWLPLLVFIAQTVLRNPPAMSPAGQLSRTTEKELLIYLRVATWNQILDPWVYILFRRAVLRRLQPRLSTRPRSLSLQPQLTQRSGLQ

[2] = molecular target: T1, Muscarinic acetylcholine receptor M1; format: functional, cell-based; remark: listed apart in the source
[3] = molecular target: Sodium-dependent serotonin transporter (Homo sapiens, UniProt P31645)
Sodium-dependent serotonin transporter, sequence (P31645 whole entry): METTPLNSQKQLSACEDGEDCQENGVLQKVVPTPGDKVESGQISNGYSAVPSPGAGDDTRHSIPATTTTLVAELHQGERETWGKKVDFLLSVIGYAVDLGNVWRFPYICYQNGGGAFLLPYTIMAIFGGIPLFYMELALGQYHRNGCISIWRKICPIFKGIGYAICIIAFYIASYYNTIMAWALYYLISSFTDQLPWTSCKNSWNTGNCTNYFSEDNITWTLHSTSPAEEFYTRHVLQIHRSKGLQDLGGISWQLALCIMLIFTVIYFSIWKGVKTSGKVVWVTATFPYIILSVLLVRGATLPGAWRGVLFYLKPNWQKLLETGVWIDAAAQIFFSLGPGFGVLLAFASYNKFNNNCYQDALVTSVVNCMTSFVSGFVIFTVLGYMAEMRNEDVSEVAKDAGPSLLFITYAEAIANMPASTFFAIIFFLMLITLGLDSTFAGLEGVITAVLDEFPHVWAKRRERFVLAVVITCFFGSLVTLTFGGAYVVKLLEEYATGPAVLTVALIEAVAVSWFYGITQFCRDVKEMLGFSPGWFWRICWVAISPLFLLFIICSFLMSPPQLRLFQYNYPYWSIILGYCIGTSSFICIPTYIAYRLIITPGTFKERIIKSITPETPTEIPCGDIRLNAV

[4] = molecular target: T3, Amine oxidase [flavin-containing] A (Homo sapiens, UniProt P21397); format: functional
T3 sequence (P21397 whole entry): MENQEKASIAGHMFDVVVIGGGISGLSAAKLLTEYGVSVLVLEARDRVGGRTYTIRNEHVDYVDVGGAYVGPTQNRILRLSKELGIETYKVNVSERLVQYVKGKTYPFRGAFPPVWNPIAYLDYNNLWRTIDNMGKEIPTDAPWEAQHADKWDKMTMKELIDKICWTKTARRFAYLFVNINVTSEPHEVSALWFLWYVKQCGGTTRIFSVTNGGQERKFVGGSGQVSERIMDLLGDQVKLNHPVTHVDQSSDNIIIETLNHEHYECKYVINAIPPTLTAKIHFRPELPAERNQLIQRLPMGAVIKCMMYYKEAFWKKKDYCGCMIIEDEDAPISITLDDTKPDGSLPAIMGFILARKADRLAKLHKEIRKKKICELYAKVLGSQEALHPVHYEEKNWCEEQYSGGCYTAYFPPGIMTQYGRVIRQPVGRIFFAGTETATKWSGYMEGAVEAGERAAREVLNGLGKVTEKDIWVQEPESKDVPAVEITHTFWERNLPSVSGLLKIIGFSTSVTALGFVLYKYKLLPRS

[5] = molecular target: T4, 5-hydroxytryptamine receptor 1A (Homo sapiens, UniProt P08908)
T4 sequence (P08908 whole entry): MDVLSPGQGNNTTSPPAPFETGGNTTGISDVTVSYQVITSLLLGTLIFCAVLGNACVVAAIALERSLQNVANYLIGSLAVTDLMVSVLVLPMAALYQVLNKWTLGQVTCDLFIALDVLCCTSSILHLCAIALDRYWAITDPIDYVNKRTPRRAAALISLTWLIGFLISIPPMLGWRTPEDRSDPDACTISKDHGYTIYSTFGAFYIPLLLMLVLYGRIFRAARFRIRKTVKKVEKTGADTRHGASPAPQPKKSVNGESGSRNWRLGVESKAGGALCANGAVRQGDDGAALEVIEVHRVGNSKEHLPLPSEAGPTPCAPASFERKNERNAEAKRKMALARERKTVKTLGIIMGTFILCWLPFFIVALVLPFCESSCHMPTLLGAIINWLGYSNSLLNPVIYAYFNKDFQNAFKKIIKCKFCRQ

[6] = molecular target: T5, Alpha-1A adrenergic receptor (Homo sapiens, UniProt P35348); format: functional, cell-based
T5 sequence (P35348 whole entry): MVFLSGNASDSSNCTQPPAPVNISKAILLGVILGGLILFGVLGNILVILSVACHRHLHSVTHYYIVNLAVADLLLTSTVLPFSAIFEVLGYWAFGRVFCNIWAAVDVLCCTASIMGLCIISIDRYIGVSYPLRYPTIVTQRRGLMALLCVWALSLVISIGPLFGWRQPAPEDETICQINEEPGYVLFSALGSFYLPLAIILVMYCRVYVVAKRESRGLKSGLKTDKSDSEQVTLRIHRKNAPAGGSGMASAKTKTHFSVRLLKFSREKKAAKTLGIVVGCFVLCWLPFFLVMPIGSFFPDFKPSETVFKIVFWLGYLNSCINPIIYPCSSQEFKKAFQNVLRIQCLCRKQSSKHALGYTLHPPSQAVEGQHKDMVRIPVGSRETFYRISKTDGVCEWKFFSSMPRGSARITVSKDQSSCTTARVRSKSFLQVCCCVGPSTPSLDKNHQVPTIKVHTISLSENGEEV

D(1A) dopamine receptor = D(1A) dopamine receptor (Homo sapiens, UniProt P21728)
D(1A) dopamine receptor, sequence (P21728 whole entry): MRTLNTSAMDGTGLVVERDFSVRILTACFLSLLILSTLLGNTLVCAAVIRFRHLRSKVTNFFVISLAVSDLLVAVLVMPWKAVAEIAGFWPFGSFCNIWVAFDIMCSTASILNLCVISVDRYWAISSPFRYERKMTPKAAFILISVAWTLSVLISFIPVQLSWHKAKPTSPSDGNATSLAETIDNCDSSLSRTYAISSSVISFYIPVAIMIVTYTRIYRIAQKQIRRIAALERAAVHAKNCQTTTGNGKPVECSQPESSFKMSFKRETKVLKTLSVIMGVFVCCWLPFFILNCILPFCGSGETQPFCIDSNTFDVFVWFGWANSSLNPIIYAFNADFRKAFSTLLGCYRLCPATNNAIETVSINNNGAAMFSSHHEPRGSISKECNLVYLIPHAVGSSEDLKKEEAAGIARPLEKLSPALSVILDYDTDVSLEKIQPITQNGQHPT

[7] = molecular target: T6, Alpha-2A adrenergic receptor (Homo sapiens, UniProt P08913)
T6 sequence (P08913 whole entry): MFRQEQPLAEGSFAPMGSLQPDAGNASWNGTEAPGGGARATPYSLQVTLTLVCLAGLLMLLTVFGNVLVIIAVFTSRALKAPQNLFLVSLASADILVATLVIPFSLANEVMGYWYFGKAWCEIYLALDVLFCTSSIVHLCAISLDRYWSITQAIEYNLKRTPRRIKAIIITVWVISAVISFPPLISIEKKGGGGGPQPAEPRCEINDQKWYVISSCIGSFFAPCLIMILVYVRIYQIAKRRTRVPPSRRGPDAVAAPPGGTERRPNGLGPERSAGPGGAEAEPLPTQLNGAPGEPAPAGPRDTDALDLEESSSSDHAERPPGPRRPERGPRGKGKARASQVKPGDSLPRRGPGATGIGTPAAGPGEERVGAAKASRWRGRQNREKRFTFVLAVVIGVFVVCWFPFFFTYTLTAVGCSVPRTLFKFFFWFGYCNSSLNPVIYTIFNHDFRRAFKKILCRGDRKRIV
Further: assay procedure not described here.

Compound	AC50 [1] [µM]	AC50 (Prothrombin) [µM]	AC50 (Thromboxane A2 receptor) [µM]	AC50 [2] [µM]	AC50 [3] [µM]	AC50 [4] [µM]	AC50 [5] [µM]	AC50 [6] [µM]	AC50 (D(1A) dopamine receptor) [µM]	AC50 [7] [µM]
N[C@H]1C(O)O[C@H](CO)[C@@H](O)[C@@H]1O (stereo not given in full) [GLUCOSAMINE]	> 30	> 30	> 30	> 30	> 30	> 30	> 30	> 30	> 30	> 30
CCCCOC(=O)C(=O)[C@H]1[C@H](C)C[C@H]2[C@@H]3C[C@H](F)C4=CC(=O)C=C[C@]4(C)[C@H]3[C@@H](O)C[C@@]21C [FLUOCORTIN BUTYL]	> 30	> 30	> 30	19.8	> 30	> 30	> 30	13.1	> 30	> 30
Cc1ccccc1OCC(O)CO (stereo not given) [MEPHENESIN]	> 30	> 30	> 30	> 30	> 30	> 30	> 30	> 30	> 30	> 30
CCOC(=O)[C@H](CCc1ccccc1)N[C@@H](C)C(=O)N1CC2(C[C@H]1C(=O)O)SCCS2	> 30	> 30	> 30	> 30	> 30	> 30	> 30	> 30	> 30	> 30
CC(CNC(=O)c1ccccc1)C(=O)OCC(=O)[C@@]12OC(C)(C)O[C@@H]1C[C@H]1[C@@H]3CCC4=CC(=O)C=C[C@]4(C)[C@@]3(F)[C@@H](O)C[C@@]12C (stereo not given in full) [TRIAMCINOLONE BENETONIDE]	> 30	> 30	> 30	> 30	> 30	> 30	> 30	> 30	> 30	> 30
Cc1cc(NS(=O)(=O)c2ccc(N)cc2)nc(C)n1 [SULFISOMIDINE]	> 30	> 30	> 30	> 30	> 30	> 30	> 30	> 30	> 30	> 30
CC(=O)[C@@]1(O)CC[C@H]2[C@@H]3C=C(C)C4=CC(=O)CC[C@]4(C)[C@H]3CC[C@@]21C	> 30	> 30	> 30	15.3	> 30	> 30	> 30	> 30	> 30	> 30
NC(=O)C[C@H](N)C(=O)O [ASPARAGINE]	> 30	> 30	> 30	> 30	> 30	> 30	> 30	> 30	> 30	> 30
OC[C@@H](O)[C@H](O)[C@@H](O)CO [XYLITOL]	> 30	> 30	> 30	> 30	> 30	> 30	> 30	> 30	> 30	> 30
CN1CCN(C2=Nc3ccccc3Sc3ccc(Cl)cc32)CC1 [CLOTHIAPINE]	> 10	> 30	> 10	0.42	4.87	> 30	12.1	0.01	0.0061	3.47
NNc1nnc(NN)c2ccccc12 [DIHYDRALAZINE]	> 30	> 30	> 30	> 30	> 30	26.4	> 30	> 30	> 30	> 30
C[S+](CC[C@H](N)C(=O)[O-])C[C@H]1O[C@@H](n2cnc3c(N)ncnc32)[C@H](O)[C@@H]1O (stereo not given in full) [ADEMETIONINE]	> 30	> 30	> 30	> 30	> 30	> 30	> 30	> 30	> 30	> 30
CC(C)COC(=O)OCN1C(=O)CN(CCN2CC(=O)N(COC(=O)OCC(C)C)C(=O)C2)CC1=O [SOBUZOXANE]	> 30	> 30	> 30	> 30	> 30	> 30	> 30	> 30	> 30	> 30
CCOc1ccccc1C(N)=O [ETHENZAMIDE]	> 30	> 30	> 30	> 30	> 30	> 30	> 30	> 30	> 30	> 30
O=[N+]([O-])O[C@@H]1CO[C@H]2[C@@H]1OC[C@@H]2O [ISOSORBIDE MONONITRATE]	> 30	> 30	> 30	> 30	> 30	> 30	> 30	> 30	> 30	> 30
C[N+]1(CCCCC[N+]2(C)CCCC2)CCCC1 [PENTOLINIUM]	> 30	> 30	> 30	> 30	> 30	> 30	> 30	> 30	> 30	> 30
